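In this assay, cells in 96-well plates receive the compound at five concentrations for 48 hours. Endpoints are linearly interpolated between the surrounding concentrations. GI50: concentration for 50% inhibition of growth. TGI is the concentration that stops growth completely.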
Assays:
Assay in all cases: inhibition of tumour cell growth, NCI panel, 48 h
SK-MEL-2 melanoma = test system: SK-MEL-2 melanoma
TK-10 renal = test system: TK-10 renal
SNB-75 CNS = test system: SNB-75 CNS
IGROV1 ovarian = test system: IGROV1 ovarian
NCI-H23 lung = test system: NCI-H23 lung
HCT-15 colon = test system: HCT-15 colon
HS 578T breast = test system: HS 578T breast
MCF7 breast = test system: MCF7 breast
OVCAR-3 ovarian = test system: OVCAR-3 ovarian
T-47D breast = test system: T-47D breast

| SMILES | TGI (SK-MEL-2 melanoma) [µM] | TGI (TK-10 renal) [µM] | TGI (SNB-75 CNS) [µM] | TGI (IGROV1 ovarian) [µM] | TGI (NCI-H23 lung) [µM] | TGI (HCT-15 colon) [µM] | TGI (HS 578T breast) [µM] | TGI (MCF7 breast) [µM] | TGI (OVCAR-3 ovarian) [µM] | TGI (T-47D breast) [µM] | GI50 (SK-MEL-2 melanoma) [µM] | GI50 (TK-10 renal) [µM] | GI50 (SNB-75 CNS) [µM] | GI50 (IGROV1 ovarian) [µM] | GI50 (NCI-H23 lung) [µM] | GI50 (HCT-15 colon) [µM] | GI50 (HS 578T breast) [µM] | GI50 (MCF7 breast) [µM] | GI50 (OVCAR-3 ovarian) [µM] | GI50 (T-47D breast) [µM] |
| --- | --- | --- | --- | --- | --- | --- | --- | --- | --- | --- | --- | --- | --- | --- | --- | --- | --- | --- | --- | --- |
| CC(=O)OC1CCC2(C)C(=CCC3C2CCC2(C)C(C(C)C(=O)O)CCC32)C1 (stereo not drawn) | > 100 | > 100 | > 100 | > 100 | > 100 | > 100 | > 100 | > 100 | > 100 | > 100 | – | – | – | – | – | – | – | – | – | – |
| COC(=O)c1ccc([N+](=O)[O-])c(O)c1 | > 100 | > 100 | > 100 | > 100 | > 100 | > 100 | > 100 | > 100 | > 100 | > 100 | – | – | – | – | – | – | – | – | – | – |
| O=C(NNC(=O)c1ccncc1)c1ccncc1 | > 100 | > 100 | > 100 | > 100 | > 100 | > 100 | > 100 | > 100 | > 100 | > 100 | – | – | – | – | – | – | – | – | – | – |
| C[C@H]1CC[C@@H]2[C@@H](C)[C@H]3[C@H](C[C@H]4[C@@H]5CC=C6C[C@@H](O)CC[C@]6(C)[C@H]5C[C@H](O)[C@]34C)N2C1 | > 100 | > 100 | > 100 | > 100 | > 100 | > 100 | > 100 | > 100 | > 100 | > 100 | – | – | – | – | – | – | – | – | – | – |
| O=S1(=O)CS(=O)(=O)OCCCO1 | > 100 | > 100 | > 100 | > 100 | > 100 | > 100 | > 100 | > 100 | > 100 | > 100 | – | – | – | – | – | – | – | – | – | – |
| COc1ccc(C2=C(c3cc(OC)c(OC)c(OC)c3)C(=O)CC2)cc1 | – | > 100 | > 100 | > 100 | > 100 | > 100 | – | > 100 | 0.242 | > 100 | 0.971 | 12.3 | 0.224 | 0.58 | 0.313 | 0.147 | 0.0827 | 0.0585 | 0.0598 | 24.6 |
| COC(=O)[C@H](CC(C)C)NC(=O)NC(=O)NC(=O)CI | 27.9 | 3.62 | 28.6 | 4.64 | 32.2 | 3.13 | 77.4 | 4.33 | 3.51 | 7.03 | 13.7 | 1.72 | 11.9 | 2.06 | 14.9 | 1.66 | 24.3 | 1.8 | 1.99 | 2.28 |
